Data taken from ChEMBL document CHEMBL1149557, “Induction of GRP78 by valproic acid is dependent upon histone deacetylase inhibition” (2007).
Calls of active or inactive are those of the source. The rule behind the calls is not given here.

Key:
[1] = tested on: HEK293; assay: Increase in GRP78 protein level in HEK293 cells at 10 ug/mL by immunoblot; format: functional, cell-based; conditions: Homo sapiens
[2] = tested on: HEK293; assay: Increase in protein disulfide isomerase level in HEK293 cells at 10 ug/ml by immunoblot; format: functional, cell-based; conditions: Homo sapiens
[3] = tested on: HEK293; assay: Induction of GADD153/CHOP protein level in HEK293 cells by immunoblot; format: functional, cell-based; conditions: Homo sapiens
[4] = target: Glycogen synthase kinase-3 beta (Homo sapiens) (UniProt P49841); assay: Inhibition of GSK3-beta at 2 mM relative to control
Sequence of Glycogen synthase kinase-3 beta (Homo sapiens) (P49841 whole entry, looked up): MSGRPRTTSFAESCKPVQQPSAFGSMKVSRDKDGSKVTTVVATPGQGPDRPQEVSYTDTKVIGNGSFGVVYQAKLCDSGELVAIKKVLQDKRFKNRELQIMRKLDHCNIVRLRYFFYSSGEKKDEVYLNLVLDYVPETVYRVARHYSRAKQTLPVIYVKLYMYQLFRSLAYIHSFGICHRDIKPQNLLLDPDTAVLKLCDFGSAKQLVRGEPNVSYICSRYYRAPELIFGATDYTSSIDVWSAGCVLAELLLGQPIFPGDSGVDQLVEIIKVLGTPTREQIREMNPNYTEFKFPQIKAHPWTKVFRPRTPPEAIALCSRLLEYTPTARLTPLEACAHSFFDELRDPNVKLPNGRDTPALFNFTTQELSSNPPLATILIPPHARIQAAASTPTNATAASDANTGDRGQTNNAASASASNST

[5] = tested on: HEK293; assay: Increase in GRP78 protein level in HEK293 cells at 2 mM by immunoblot; format: functional, cell-based; conditions: Homo sapiens
[6] = tested on: HEK293; assay: Increase in protein disulfide isomerase level in HEK293 cells at 2 mM by immunoblot; format: functional, cell-based; conditions: Homo sapiens
[7] = target: T1, Histone deacetylase (Homo sapiens) (UniProt Q13547+O15379+Q9UBN7+Q92769+Q9UQL6+Q8WUI4+Q9BY41+Q96DB2+P56524+Q9UKV0+Q969S8); assay: Inhibition of HDAC in HEK293 cells assessed as increase in histone H4 acetylation at 2 mM after 48 hrs; format: cell-based
[8] = tested on: HEK293; assay: Increase in protein disulfide isomerase level in HEK293 cells at 600 nM by immunoblot; format: functional, cell-based; conditions: Homo sapiens
[9] = tested on: HEK293; assay: Increase in GRP78 protein level in HEK293 cells at 600 nM by immunoblot; format: functional, cell-based; conditions: Homo sapiens
[10] = tested on: HEK293; assay: (§1) Increase in GRP78 protein level in HEK293 cells at 1 mM by immunoblot; format: functional, cell-based; conditions: Homo sapiens
[11] = tested on: HEK293; assay: Increase in protein disulfide isomerase level in HEK293 cells at 1 mM by immunoblot; format: functional, cell-based; conditions: Homo sapiens
[12] = tested on: HEK293; assay: as §1; format: functional, Homo sapiens
[13] = target: T1, Histone deacetylase (Homo sapiens); assay: Inhibition of HDAC in HEK293 cells assessed as increase in histone H4 acetylation at 1 mM after 48 hrs relative to control; format: cell-based

With CC(=O)N[C@H]1[C@@H](O[C@@H]2O[C@H](CC(O)[C@H]3O[C@@H](n4ccc(=O)[nH]c4=O)[C@H](O)[C@@H]3O)[C@H](O)[C@H](O)[C@H]2NC(=O)/C=C/CC(C)C)O[C@H](CO)[C@@H](N)[C@@H]1O (some centres undefined) the Activity [1] was “Active”, the Activity [2] was “Active” and the Activity [3] was “Active”.
For CC/C=C(\CCC)C(=O)O, the inhibition [4] was 91.3%, the Activity [5] was “Active” and the Activity [6] was “Active”. The Activity [7] was “Active”.
In the case of CC(/C=C/C(=O)NO)=C\[C@@H](C)C(=O)c1ccc(N(C)C)cc1, the Activity [8] is reported as “Active” and the Activity [9] is reported as “Active”.
In the case of O=C(O)CCCc1ccccc1, the inhibition [4] is reported as 126% and the Activity [7] is reported as “inactive”.
For CCCC(CCC)C(=O)O [VALPROIC ACID], the inhibition [4] was 65.2%, the Activity [10] was “Active” and the Activity [11] was “Active”. It also gave a Fold change [12] of 2 and a Fold change [13] of 3.5.
With CCC(CC)C(=O)O the inhibition [4] was 2.9%, the Activity [5] was “inactive” and the Activity [7] was “inactive”.
